{
  "source": "patent US9174969B2",
  "about": "“Indoline scaffold SHP-2 inhibitors and cancer treatment method” (UNIVERSITY OF SOUTH FLORIDA, priority 2008, dated 2015)",
  "data": [
    {"target": "Shp2 (Homo sapiens (Human), UniProt Q06124)", "test": "in vitro phosphotyrosine phosphatase activity (DiFMUP) assay", "assay_type": "biochemical", "details": "mean ± spread over n tests", "method": "All reagents were purchased from commercial suppliers and used without further purification. Melting points were determined using a Barnstead international melting point apparatus and remain uncorrected. ^1H NMR spectra were recorded on a Varian Mercury 400 MHz spectrometer with CDCl3 or DMSO-d6 as the solvent. ^13C NMR spectra are recorded at 100 MHz. All coupling constants are measured in Hertz (Hz) and the chemical shifts (δH and δC) are quoted in parts per million (ppm) relative to TMS (δ0), which was used as the internal standard. High resolution mass spectroscopy was carried out on an Agilent 6210 LC/MS (ESI-TOF). Microwave reactions were performed in CEM 908005 model and Biotage initiator 8 machines. HPLC analysis was performed using a JASCO HPLC system equipped with a PU-2089 Plus quaternary gradient pump and a UV-2075 Plus UV-VIS detector, using an Alitech Kromasil C-18 column (150×4.6 mm, 5 μm). Thin layer chromatography was performed using silica gel 60 F254 plates (Fisher), with observation under UV when necessary. Anhydrous solvents (acetonitrile, dimethyl formamide, ethanol, isopropanol, methanol and tetrahydrofuran) were used as purchased from Aldrich. HPLC grade solvents (methanol, acetonitrile and water) were purchased from Burdick and Jackson for HPLC and mass analysis.", "units": {"IC50": "µM"}, "values": [
      {"compound": "4-(6-(4-(3-Chlorophenyl)piperazin-1-ylsulfonyl)-3,4-dihydroquinolin-1(2H)-yl)-4-oxobutanoic acid [JHE-02-023]", "IC50": "37.3 ± 5.3"},
      {"compound": "O=C(c1cccc(Cl)c1)N1CCc2cc(S(=O)(=O)N3CCN(c4cccc(Cl)c4)CC3)ccc21", "note": "[JF020, (3-Chlorophenyl)(5-(4-(3-chlorophenyl)piperazin-1-ylsulfonyl)indolin-1-yl)methanone]", "IC50": "5.7 ± 3.9"},
      {"compound": "O=C(c1ccc(Cl)cc1)N1CCc2cc(S(=O)(=O)N3CCN(c4cccc(Cl)c4)CC3)ccc21", "note": "[JF021, (4-Chlorophenyl)(5-(4-(3-chlorophenyl)piperazin-1-ylsulfonyl)indolin-1-yl)methanone]", "IC50": "10.4 ± 2"},
      {"compound": "O=C(c1ccccc1)N1CCc2cc(S(=O)(=O)N3CCN(c4cccc(Cl)c4)CC3)ccc21", "note": "[JF022, (5-(4-(3-Chlorophenyl)piperazin-1-ylsulfonyl)indolin-1-yl)(phenyl)methanone]", "IC50": "8.4 ± 2.3"},
      {"compound": "O=C(c1ccc(Cl)cc1Cl)N1CCc2cc(S(=O)(=O)N3CCN(c4cccc(Cl)c4)CC3)ccc21", "note": "[JF024, (5-(4-(3-Chlorophenyl)piperazin-1-ylsulfonyl)indolin-1-yl)(2,4-dichlorophenyl)methanone]", "IC50": "7.6 ± 1.3"},
      {"compound": "O=C(c1cc(Cl)cc(Cl)c1)N1CCc2cc(S(=O)(=O)N3CCN(c4cccc(Cl)c4)CC3)ccc21", "note": "[JF025, (5-(4-(3-Chlorophenyl)piperazin-1-ylsulfonyl)indolin-1-yl)(3,5-dichlorophenyl)methanone]", "IC50": "8.2 ± 2.6"},
      {"compound": "O=C(C1CCCC1)N1CCc2cc(S(=O)(=O)N3CCN(c4cccc(Cl)c4)CC3)ccc21", "note": "[JF026, (5-(4-(3-Chlorophenyl)piperazin-1-ylsulfonyl)indolin-1-yl)(cyclopentyl)methanone]", "IC50": "6.9 ± 2.2"},
      {"compound": "O=C(C1CC1)N1CCc2cc(S(=O)(=O)N3CCN(c4cccc(Cl)c4)CC3)ccc21", "note": "[JF027, (5-(4-(3-Chlorophenyl)piperazin-1-ylsulfonyl)indolin-1-yl)(cyclopropyl)methanone]", "IC50": "8.5 ± 2"},
      {"compound": "COc1ccc(C(=O)N2CCc3cc(S(=O)(=O)N4CCN(c5cccc(Cl)c5)CC4)ccc32)cc1", "note": "[JF028, (5-(4-(3-Chlorophenyl)piperazin-1-ylsulfonyl)indolin-1-yl)(4-methoxyphenyl)methanone]", "IC50": "6.3 ± 2.9"},
      {"compound": "O=C(Cc1ccccc1)N1CCc2cc(S(=O)(=O)N3CCN(c4cccc(Cl)c4)CC3)ccc21", "note": "[JF031, 1-(5-(4-(3-Chlorophenyl)piperazin-1-ylsulfonyl)indolin-1-yl)-2-phenyleth anone]", "IC50": "22.8 ± 4.5"},
      {"compound": "O=C(Nc1ccccc1)N1CCc2cc(S(=O)(=O)N3CCN(c4cccc(Cl)c4)CC3)ccc21", "note": "[JF033, 5-(4-(3-Chlorophenyl)piperazin-1-ylsulfonyl)-N-phenylindoline-1-carboxamide]", "IC50": "11.7 ± 1.4"},
      {"compound": "O=C(Nc1ccccc1F)N1CCc2cc(S(=O)(=O)N3CCN(c4cccc(Cl)c4)CC3)ccc21", "note": "[JF035, 5-(4-(3-Chlorophenyl)piperazin-1-ylsulfonyl)-N-(2-fluorophenyl)indoline-1-carboxamide]", "IC50": "12.2 ± 2"},
      {"compound": "O=C(Nc1ccc(F)cc1)N1CCc2cc(S(=O)(=O)N3CCN(c4cccc(Cl)c4)CC3)ccc21", "note": "[JF038, 5-(4-(3-Chlorophenyl)piperazin-1-ylsulfonyl)-N-(4-fluorophenyl)indoline-1-carboxamide]", "IC50": "12.6 ± 5.4"},
      {"compound": "O=C(Nc1cccc(F)c1)N1CCc2cc(S(=O)(=O)N3CCN(c4cccc(Cl)c4)CC3)ccc21", "note": "[JF039, 5-(4-(3-Chlorophenyl)piperazin-1-ylsulfonyl)-N-(3-fluorophenyl)indoline-1-carboxamide]", "IC50": "8.1 ± 1.7"},
      {"compound": "O=C(Nc1ccccc1C(F)(F)F)N1CCc2cc(S(=O)(=O)N3CCN(c4cccc(Cl)c4)CC3)ccc21", "note": "[JF040, 5-(4-(3-Chlorophenyl)piperazin-1-ylsulfonyl)-N-(2-(trifluoromethyl)phenyl)indoline-1-carboxamide]", "IC50": "9 ± 1.7"},
      {"compound": "O=C(O)/C=C\\C(=O)N1CCc2cc(S(=O)(=O)N3CCN(c4cccc(Cl)c4)CC3)ccc21", "note": "[JHE-01-129A, (Z)-4-(5-(4-(3-Chlorophenyl)piperazin-1-ylsulfonyl)indolin-1-yl)-4-oxobut-2-enoic acid]", "IC50": "2.8 ± 0.7"},
      {"compound": "O=C(O)CCCC(=O)N1CCc2cc(S(=O)(=O)N3CCN(c4cccc(Cl)c4)CC3)ccc21", "note": "[JHE-01-129B, 5-(5-(4-(3-Chlorophenyl)piperazin-1-ylsulfonyl)indolin-1-yl)-5-oxopentanoic acid]", "IC50": "2.8 ± 0.7"},
      {"compound": "CCOC(=O)CNC(=O)N1CCc2cc(S(=O)(=O)N3CCN(c4cccc(Cl)c4)CC3)ccc21", "note": "[JHE-01-134A, ethyl 2-(5-(4-(3-Chlorophenyl)piperazin-1-ylsulfonyl)indoline-1-carboxamido)acetate]", "IC50": 60.3},
      {"compound": "O=C(O)CNC(=O)N1CCc2cc(S(=O)(=O)N3CCN(c4cccc(Cl)c4)CC3)ccc21", "note": "[JHE-01-137, 2-(5-(4-(3-Chlorophenyl)piperazin-1-ylsulfonyl)indoline-1-carboxamido)acetic acid]", "IC50": "4.6 ± 0.3"},
      {"compound": "O=C(O)C(=O)N1CCc2cc(S(=O)(=O)N3CCN(c4cccc(Cl)c4)CC3)ccc21", "note": "[JHE-01-155B, 2-(5-(4-(3-Chlorophenyl)piperazin-1-ylsulfonyl)indolin-1-yl)-2-oxoacetic acid]", "IC50": "4.8 ± 2.8"},
      {"compound": "COCC(=O)N1CCc2cc(S(=O)(=O)N3CCN(c4cccc(Cl)c4)CC3)ccc21", "note": "[JHE-01-169, 1-(5-(4-(3-Chlorophenyl)piperazin-1-ylsulfonyl)indolin-1-yl)-2-methoxyethanone]", "IC50": "9.6 ± 2.4"},
      {"compound": "O=C(O)C(O)CC(=O)N1CCc2cc(S(=O)(=O)N3CCN(c4cccc(Cl)c4)CC3)ccc21", "note": "(centres unmarked) [JHE-02-001, 4-(5-(4-(3-Chlorophenyl)piperazin-1-ylsulfonyl)indolin-1-yl)-2-hydroxy-4-oxobutanoic acid]", "IC50": "1.1 ± 0.3"},
      {"compound": "O=C(O)C1CC=CCC1C(=O)N1CCc2cc(S(=O)(=O)N3CCN(c4cccc(Cl)c4)CC3)ccc21", "note": "(centres unmarked) [JHE-02-007, 6-(5-(4-(3-Chlorophenyl)piperazin-1-ylsulfonyl)indoline-1-carbonyl)cyclohex-3-enecarboxylic acid]", "IC50": "20.3 ± 4.3"},
      {"compound": "CCOC(=O)CCNC(=O)N1CCc2cc(S(=O)(=O)N3CCN(c4cccc(Cl)c4)CC3)ccc21", "note": "[JHE-02-010A, Ethyl 3-(5-(4-(3-chlorophenyl)piperazin-1-ylsulfonyl)indoline-1-carboxamido)propanoate]", "IC50": "9.3 ± 2.2"},
      {"compound": "CCOC(=O)C(C)NC(=O)N1CCc2cc(S(=O)(=O)N3CCN(c4cccc(Cl)c4)CC3)ccc21", "note": "(centres unmarked) [JHE-02-010B, Ethyl 2-(5-(4-(3-chlorophenyl)piperazin-1-ylsulfonyl)indoline-1-carboxamido)propanoate]", "IC50": "5.1 ± 2.7"},
      {"compound": "CCOC(=O)C(NC(=O)N1CCc2cc(S(=O)(=O)N3CCN(c4cccc(Cl)c4)CC3)ccc21)C(C)C", "note": "(centres unmarked) [JHE-02-010C, Ethyl 2-(5-(4-(3-chlorophenyl)piperazin-1-ylsulfonyl)indoline-1-carboxamido)-3-methylbutanoate]", "IC50": "7.7 ± 2.4"},
      {"compound": "CCOC(=O)C(CC(C)C)NC(=O)N1CCc2cc(S(=O)(=O)N3CCN(c4cccc(Cl)c4)CC3)ccc21", "note": "(centres unmarked) [JHE-02-012, Ethyl 2-(5-(4-(3-chlorophenyl)piperazin-1-ylsulfonyl)indoline-1-carboxamido)-4-methylpentanoate]", "IC50": "6 ± 2.8"},
      {"compound": "CCOC(=O)C(Cc1ccccc1)NC(=O)N1CCc2cc(S(=O)(=O)N3CCN(c4cccc(Cl)c4)CC3)ccc21", "note": "(centres unmarked) [JHE-02-014, Ethyl 2-(5-(4-(3-chlorophenyl)piperazin-1-ylsulfonyl)indoline-1-carboxamido)-3-phenylpropanoate]", "IC50": "6.9 ± 4.2"},
      {"compound": "COC(=O)c1ccccc1NC(=O)N1CCc2cc(S(=O)(=O)N3CCN(c4cccc(Cl)c4)CC3)ccc21", "note": "[JHE-02-015A, Methyl 2-(5-(4-(3-chlorophenyl)piperazin-1-ylsulfonyl)indoline-1-carboxamido)benzoate]", "IC50": "14.3 ± 4.1"},
      {"compound": "O=C(O)CCNC(=O)N1CCc2cc(S(=O)(=O)N3CCN(c4cccc(Cl)c4)CC3)ccc21", "note": "[JHE-02-017A, 3-(5-(4-(3-Chlorophenyl)piperazin-1-ylsulfonyl)indoline-1-carboxamido)propanoic acid]", "IC50": "4.8 ± 3.3"},
      {"compound": "CC(NC(=O)N1CCc2cc(S(=O)(=O)N3CCN(c4cccc(Cl)c4)CC3)ccc21)C(=O)O", "note": "(centres unmarked) [JHE-02-017B, 2-(5-(4-(3-Chlorophenyl)piperazin-1-ylsulfonyl)indoline-1-carboxamido)propanoic acid]", "IC50": "6.4 ± 0.5"},
      {"compound": "CC(C)C(NC(=O)N1CCc2cc(S(=O)(=O)N3CCN(c4cccc(Cl)c4)CC3)ccc21)C(=O)O", "note": "(centres unmarked) [JHE-02-017C, 2-(5-(4-(3-Chlorophenyl)piperazin-1-ylsulfonyl)indoline-1-carboxamido)-3-methylbutanoic acid]", "IC50": "4.4 ± 1.9"},
      {"compound": "CC(C)CC(NC(=O)N1CCc2cc(S(=O)(=O)N3CCN(c4cccc(Cl)c4)CC3)ccc21)C(=O)O", "note": "(centres unmarked) [JHE-02-019A, 2-(5-(4-(3-Chlorophenyl)piperazin-1-ylsulfonyl)indoline-1-carboxamido)-4-methylpentanoic acid]", "IC50": "4.5 ± 3.5"},
      {"compound": "O=C(O)C(Cc1ccccc1)NC(=O)N1CCc2cc(S(=O)(=O)N3CCN(c4cccc(Cl)c4)CC3)ccc21", "note": "(centres unmarked) [JHE-02-019B, 2-(5-(4-(3-Chlorophenyl)piperazin-1-ylsulfonyl)indoline-1-carboxamido)-3-phenylpropanoic acid]", "IC50": "5.4 ± 2.7"},
      {"compound": "O=C(O)c1ccccc1NC(=O)N1CCc2cc(S(=O)(=O)N3CCN(c4cccc(Cl)c4)CC3)ccc21", "note": "[JHE-02-020A, 2-(5-(4-(3-Chlorophenyl)piperazin-1-ylsulfonyl)indoline-1-carboxamido)benzoic acid]", "IC50": "8.3 ± 5.6"}
    ]}
  ]
}
